Laboratory results from article PMC10999543, “Identification of kinase modulators as host-directed therapeutics against intracellular methicillin-resistant Staphylococcus aureus” (Frontiers in Cellular and Infection Microbiology, 2024).
Read-outs that look alike come from different tables or passages of the source.

Experiments:
[1] = system: HeLa cells; assay: Compound screen by flow cytometry: HeLa cell count as surrogate readout of cell viability (z-scoreHeLa); type: cell-based, human; conditions: for cell death / z-scoreHeLa mean / z-scoreHeLa rep 1 / z-scoreHeLa rep 2 / z-scoreHeLa rep 3: PKIS compound screen; for z-scoreHeLa mean: mean of 3 replicates; for z-scoreHeLa rep 1 / cell count rep 1: replicate 1; for z-scoreHeLa rep 2 / cell count rep 2: replicate 2; for z-scoreHeLa rep 3 / cell count rep 3: replicate 3
Summary of the method: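 HeLa cells were infected with GFP-MRSA (mean MOI 6.8 ± 4.6) for 1 h, and extracellular bacteria were killed with 30 µg/ml gentamicin. Cells were then incubated overnight with kinase inhibitors in 5 µg/ml gentamicin, in triplicate against DMSO controls. Flow-cytometric cell count served as a viability surrogate, expressed as a plate z-score.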

[2] = system: intracellular MRSA; type: cell-based, Staphylococcus aureus; conditions: for effect / hit / z-scoreMRSA+ mean / z-scoreMRSA+ rep 1 / z-scoreMRSA+ rep 2 / z-scoreMRSA+ rep 3: PKIS compound screen; for hit: Yes/No call (effect without cell death); for z-scoreMRSA+ mean: mean of 3 replicates; for z-scoreMRSA+ rep 1 / %GFP+ rep 1: replicate 1; for z-scoreMRSA+ rep 2 / %GFP+ rep 2: replicate 2; for z-scoreMRSA+ rep 3 / %GFP+ rep 3: replicate 3
Summary of the method: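 HeLa cells infected with GFP-MRSA (MOI ~6.8), gentamicin-cleared, then incubated overnight at 37°C with inhibitors plus 5 µg/ml gentamicin; DMSO as negative control, triplicates. Flow cytometry gave % GFP-positive cells and cell count (viability surrogate); hits by plate z-score (MRSA ≤ -2, HeLa count ≥ -3).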

[3] = PKIS compounds raw data, HeLa cell count
[4] = PKIS compounds raw data, MRSA-infected HeLa cells
[5] = PKIS compound screen raw data, HeLa cell count
[6] = PKIS compound screen raw data, MRSA-infected HeLa cells

Row | SMILES | cell death ([1]; Yes/No call) | z-scoreHeLa mean [1] | z-scoreHeLa rep 1 [1] | z-scoreHeLa rep 2 [1] | z-scoreHeLa rep 3 [1] | cell count rep 1 [1, 3] | cell count rep 2 [1, 3] | cell count rep 3 [1, 3] | effect ([2]; Yes/No call) | hit [2] | z-scoreMRSA+ mean [2] | z-scoreMRSA+ rep 1 [2] | z-scoreMRSA+ rep 2 [2] | z-scoreMRSA+ rep 3 [2] | %GFP+ rep 1 [2, 4] | %GFP+ rep 2 [2, 4] | %GFP+ rep 3 [2, 4] | further results
1 | Cc1cccc(-c2nc(Nc3ccc4ncsc4c3)c3ccccc3n2)n1 [GW867588X] | No | 1.67 | 1.09 | 1.64 | 2.28 | 7867 | 8486 | 9199 | No | No | 0.0377 | -0.25 | 0.22 | 0.14 | 25.8% | 27.2% | 28.0% | –
2 | COc1cc(Nc2ncc3c(C)nc(-c4cc5ccccc5[nH]4)n3n2)cc(OC)c1OC [GW869516X] | No | 1.43 | 1.29 | 1.41 | 1.60 | 8188 | 8134 | 8115 | No | No | -0.71 | -0.87 | -0.43 | -0.83 | 22.6% | 23.8% | 22.8% | –
3 | Cc1nc(-c2ccccc2)n2nc(NCCCN3CCOCC3)ncc12 [GW874091X] | No | -0.73 | -1.54 | -0.37 | -0.27 | 3071 | 3785 | 6390 | No | No | 0.31 | 0.36 | 0.54 | 0.0338 | 14.3% | 15.1% | 16.0% | –
4 | Cc1cccc(-c2nc(Nc3cccc(C(N)=O)c3)c3ccccc3n2)n1 [GW876019X] | No | -1.99 | -2.12 | -2.54 | -1.32 | 2511 | 2183 | 3514 | No | No | 0.49 | 0.42 | 0.20 | 0.84 | 29.2% | 27.1% | 31.8% | cell count rep 1 [1, 5]: 25839; cell count rep 2 [1, 5]: 10617; cell count rep 3 [1, 5]: 8442; z-scoreHeLa mean ([1]; HeLa cell count): -1.76; z-scoreHeLa rep 1 ([1]; HeLa cell count): -0.74; z-scoreHeLa rep 2 ([1]; HeLa cell count): -2.51; z-scoreHeLa rep 3 ([1]; HeLa cell count): -2.04; cell death ([1]; Yes/No call on z-scoreHeLa): No; %GFP+ rep 1 [2, 6]: 11.7%; %GFP+ rep 2 [2, 6]: 12.9%; %GFP+ rep 3 [2, 6]: 16.0%; z-scoreMRSA+ mean ([2]; MRSA-infected HeLa cells): -1.70; z-scoreMRSA+ rep 1 ([2]; MRSA-infected HeLa cells): -1.89; z-scoreMRSA+ rep 2 ([2]; MRSA-infected HeLa cells): -1.78; z-scoreMRSA+ rep 3 ([2]; MRSA-infected HeLa cells): -1.43; effect ([2]; Yes/No call on z-scoreMRSA+): No
